Experimental data: ChEMBL document CHEMBL1156573, “Design and synthesis of a novel series of N-alkyl isatin acylhydrazone derivatives that act as selective cannabinoid receptor 2 agonists for the treatment of neuropathic pain” (J Med Chem, 2008)
Calls of active or inactive are those of the source. No cut-off for these calls is given here.

How the values were obtained:
[1] = biological target: Cannabinoid receptor 1 (Homo sapiens) (UniProt P21554); test: Displacement of [3H]CP-55940 from human CB1 receptor expressed in CHO cells at 1 uM by liquid scintillation counting; assay type: cell-based
Cannabinoid receptor 2 [2] = biological target: T1, Cannabinoid receptor 2 (Homo sapiens, UniProt P34972); test: Displacement of [3H](R)-3-methyl-2-(3-(morpholinomethyl)-3,4-dihydro-2H-benzo[b][1,4]oxazin-5-yl)-1-(naphthalen-1-yl)but-2-en-1-one from human CB2 receptor expressed in CHO cells at 1 uM by liquid scintillation counting; assay type: cell-based
[3] = biological target: Cannabinoid receptor 1 (Homo sapiens) (UniProt P21554); test: Agonist activity at human CB1 receptor expressed in CHO cells by [35S]GTPgammaS assay relative to CP-55940; assay type: functional, cell-based
Cannabinoid receptor 2 [4] = biological target: T1, Cannabinoid receptor 2; test: Displacement of [3H]CP-55940 from human CB2 receptor expressed in CHOK1 cells by liquid scintillation counting; assay type: cell-based, CHO-K1
Cannabinoid receptor 2 [5] = biological target: T1, Cannabinoid receptor 2; test: Agonist activity at human CB2 receptor expressed in CHO cells by [35S]GTPgammaS assay relative to CP-55940; assay type: functional, cell-based
[6] = biological target: Cannabinoid receptor 1 (Homo sapiens) (UniProt P21554); test: Displacement of [3H]CP-55940 from human CB1 receptor expressed in CHO cells at 10 uM by liquid scintillation counting; assay type: cell-based
Cannabinoid receptor 2 [7] = biological target: T1, Cannabinoid receptor 2; test: Displacement of [3H](R)-3-methyl-2-(3-(morpholinomethyl)-3,4-dihydro-2H-benzo[b][1,4]oxazin-5-yl)-1-(naphthalen-1-yl)but-2-en-1-one from human CB2 receptor expressed in CHO cells at 10 uM by liquid scintillation counting; assay type: cell-based
[8] = biological target: Cannabinoid receptor 1 (Homo sapiens) (UniProt P21554); test: Agonist activity at human CB1 receptor expressed in CHO cells at 3 uM by [35S]GTPgammaS assay relative to CP-55940; assay type: functional, cell-based
Cannabinoid receptor 2 [9] = biological target: T1, Cannabinoid receptor 2; test: Agonist activity at human CB2 receptor expressed in CHO cells at 3 uM by [35S]GTPgammaS assay relative to CP-55940; assay type: functional, cell-based
[10] = biological target: Cannabinoid receptor 1 (Homo sapiens) (UniProt P21554); test: Agonist activity at human CB1 receptor expressed in CHO cells at 10 uM by [35S]GTPgammaS assay; assay type: functional, cell-based
Rattus norvegicus [11] = test: Antiallodynic activity in AM-630-pretreated ip dosed spinal nerve ligated Sprague-Dawley rat model assessed as inhibition of tactile allodynia; assay type: functional, organism-based
Rattus norvegicus [12] = test: Antiallodynic activity in spinal nerve ligated Sprague-Dawley rat model assessed as inhibition of tactile allodynia at 10 mg/kg, ip; assay type: functional, organism-based; parameters: dose 10 mg/kg
Rattus norvegicus [13] = test: Toxicity in Sprague-Dawley rat assessed as exploratory behavior at 15 mg/kg, ip by open-field chamber test; assay type: organism-based; parameters: dose 15 mg/kg, route intraperitoneal; conditions: in vivo
Rattus norvegicus [14] = test: Antiallodynic activity in ip dosed spinal nerve ligated Sprague-Dawley rat model assessed as inhibition of tactile allodynia; assay type: functional
Rattus norvegicus [15] = test: Antiallodynic activity in spinal nerve ligated Sprague-Dawley rat model assessed as inhibition of tactile allodynia at 15 mg/kg, ip; assay type: functional, organism-based; parameters: dose 15 mg/kg
Cannabinoid receptor 2 [16] = biological target: T1, Cannabinoid receptor 2; test: Agonist activity at human CB2 receptor expressed in CHO cells by [35S]GTPgammaS assay; assay type: functional, cell-based

Cannabinoid receptor 1 (Homo sapiens), sequence (P21554 whole entry): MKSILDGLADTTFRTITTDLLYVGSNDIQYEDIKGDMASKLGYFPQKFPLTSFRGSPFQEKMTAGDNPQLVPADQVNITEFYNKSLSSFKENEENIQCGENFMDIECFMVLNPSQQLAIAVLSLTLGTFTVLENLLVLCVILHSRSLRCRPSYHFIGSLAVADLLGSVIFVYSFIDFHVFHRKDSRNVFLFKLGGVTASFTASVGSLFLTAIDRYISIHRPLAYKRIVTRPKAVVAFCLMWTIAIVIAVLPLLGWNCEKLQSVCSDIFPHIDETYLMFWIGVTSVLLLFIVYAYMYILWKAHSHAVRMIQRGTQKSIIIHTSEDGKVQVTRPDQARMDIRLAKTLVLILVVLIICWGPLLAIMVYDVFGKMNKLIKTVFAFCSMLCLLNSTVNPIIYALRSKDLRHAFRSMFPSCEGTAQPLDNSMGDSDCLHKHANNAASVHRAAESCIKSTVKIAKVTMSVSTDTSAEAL
T1 sequence (P34972 whole entry): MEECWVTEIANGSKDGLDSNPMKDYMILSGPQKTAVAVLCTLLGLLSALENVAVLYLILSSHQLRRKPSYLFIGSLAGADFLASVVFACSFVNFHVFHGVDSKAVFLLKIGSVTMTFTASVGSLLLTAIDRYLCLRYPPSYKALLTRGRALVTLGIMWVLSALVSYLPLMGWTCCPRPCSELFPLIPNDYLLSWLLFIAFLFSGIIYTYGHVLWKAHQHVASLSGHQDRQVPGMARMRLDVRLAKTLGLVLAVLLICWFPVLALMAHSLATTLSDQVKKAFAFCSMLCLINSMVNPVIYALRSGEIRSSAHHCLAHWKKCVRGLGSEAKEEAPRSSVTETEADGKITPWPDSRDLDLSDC

O=C(N/N=C1\C(=O)N(c2ccccc2)c2ccccc21)c1ccccc1
Activity [1]: 18%
Activity (Cannabinoid receptor 2 [2]): 8%

O=C(N/N=C1\C(=O)N(CCC2CCCCC2)c2ccccc21)c1ccccc1
Emax [3]: 56.8%
Ki (Cannabinoid receptor 2 [4]): 58.8 nM
Emax (Cannabinoid receptor 2 [5]): 55.6%
Activity [6]: 96%
Activity (Cannabinoid receptor 2 [7]): 79.8%

CCCCCCN1C(=O)/C(=N\NC(=O)OC(C)(C)C)c2ccccc21
Activity [1]: 85.1%
Emax [3]: 92%
Ki (Cannabinoid receptor 2 [4]): 13.9 nM
Activity (Cannabinoid receptor 2 [2]): 82.3%
Emax (Cannabinoid receptor 2 [5]): 43.4%

CCCCCCN1C(=O)/C(=N\NC(=O)c2ccc3ccccc3c2)c2ccccc21
Activity [1]: < 30%
Activity (Cannabinoid receptor 2 [2]): < 30%

CCCCCN1C(=O)/C(=N\NC(=O)c2ccccc2)c2ccccc21
Activity [1]: 95%
Emax [3]: 95.1%
Activity (Cannabinoid receptor 2 [2]): 80%
Emax (Cannabinoid receptor 2 [5]): 68.5%

O=C(N/N=C1\C(=O)N(Cc2ccc(Cl)cc2)c2ccccc21)c1ccccc1
Activity [1]: 94.5%
Emax [3]: 72%
Activity (Cannabinoid receptor 2 [2]): 22%
Emax (Cannabinoid receptor 2 [5]): 39.8%

CCCCCCN1C(=O)/C(=N\NC(=O)C23CC4CC(CC(C4)C2)C3)c2ccccc21
Activity [1]: 82.6%
Emax [8]: 34.6%
Activity (Cannabinoid receptor 2 [2]): 90.7%
Emax (Cannabinoid receptor 2 [9]): 32.1%

O=C(Cc1ccccc1)N/N=C1\C(=O)N(CCC2CCCCC2)c2ccccc21
Emax [3]: 75%
Emax (Cannabinoid receptor 2 [5]): 21%
Activity [6]: 88.8%
Activity (Cannabinoid receptor 2 [7]): 47.2%

CCCCCCN1C(=O)/C(=N\NC(=O)c2ccc(OC)cc2)c2ccccc21
Activity [1]: 81.7%
Emax [3]: 71%
Activity (Cannabinoid receptor 2 [2]): 56%
Emax (Cannabinoid receptor 2 [5]): 49.5%

O=C(N/N=C1\C(=O)N(CCC2CCCCC2)c2ccccc21)Nc1ccccc1
Activity [6]: < 40%
Activity (Cannabinoid receptor 2 [7]): < 40%

CCCCCCN1C(=O)/C(=N\NC(=S)Nc2ccccc2)c2ccccc21
Activity [6]: 49%
Activity (Cannabinoid receptor 2 [7]): 37.7%

CCCCCCN1C(=O)/C(=N\NC(=O)c2ccccc2)c2cc(C)ccc21
Activity [1]: 22%
Activity (Cannabinoid receptor 2 [2]): 1%

O=C1/C(=N\NS(=O)(=O)c2ccccc2)c2ccccc2N1CCC1CCCCC1
Activity [6]: < 40%
Activity (Cannabinoid receptor 2 [7]): < 40%

CCCCCCN1C(=O)/C(=N\NC(=O)Cc2ccccc2)c2ccccc21
Emax [3]: 71.9%
Emax (Cannabinoid receptor 2 [5]): 45.8%
Activity [6]: 98.2%
Activity (Cannabinoid receptor 2 [7]): 91.5%

CCCCCCN1C(=O)/C(=N\NC(=O)C2CCCCC2)c2ccccc21
Activity [1]: 65.8%
Emax [8]: 40.9%
Activity (Cannabinoid receptor 2 [2]): 61%
Emax (Cannabinoid receptor 2 [5]): 58%

CCCCCCN1C(=O)/C(=N\NC(=O)c2ccccc2)c2cc(Cl)ccc21
Activity [1]: 9%
Activity (Cannabinoid receptor 2 [2]): 6%

CCCCCCN1C(=O)/C(=N\NC(=O)c2cccc3ccccc23)c2ccccc21
Activity [1]: 83.9%
Emax [8]: 12.9%
Activity (Cannabinoid receptor 2 [2]): 69.8%
Emax (Cannabinoid receptor 2 [5]): 30.5%

CCCCCCN1C(=O)/C(=N\NC(=O)Nc2ccccc2)c2ccccc21
Activity [6]: < 40%
Activity (Cannabinoid receptor 2 [7]): < 40%

CCCCCCN1C(=O)/C(=N\NC(=O)CCCCC)c2ccccc21
Activity [1]: 45.2%
Activity (Cannabinoid receptor 2 [2]): 36.6%

CCCCCCN1C(=O)/C(=N\NC(=O)c2ccccc2)c2cc(OC)ccc21
Activity [1]: 26%
Activity (Cannabinoid receptor 2 [2]): 17%

O=C1/C(=N\NC(=S)Nc2ccccc2)c2ccccc2N1CCC1CCCCC1
Activity [6]: < 40%
Activity (Cannabinoid receptor 2 [7]): < 40%

CCCCCCN1C(=O)/C(=N/NC(=O)OC(C)(C)C)c2ccccc21
Activity [1]: 75%
Activity [8]: inactive
Activity (Cannabinoid receptor 2 [2]): 27%
Emax (Cannabinoid receptor 2 [9]): 23.4%
Activity [10]: inactive

CCCCCCN1C(=O)/C(=N\NC(=O)c2ccccc2)c2cccc(I)c21
Activity [1]: 61%
Activity [3]: inactive
Activity (Cannabinoid receptor 2 [2]): 66%
Emax (Cannabinoid receptor 2 [9]): 55%
Activity [10]: inactive

CCCN1C(=O)/C(=N\NC(=O)c2ccccc2)c2ccccc21
Activity [1]: 43%
Activity [3]: inactive
Activity (Cannabinoid receptor 2 [2]): 32%
Emax (Cannabinoid receptor 2 [5]): 61.4%
Activity [10]: inactive

O=C(N/N=C1\C(=O)N(CC2CCCCC2)c2ccccc21)c1ccccc1
Activity [1]: 99%
Emax [3]: 99%
Activity (Cannabinoid receptor 2 [2]): 100%
Emax (Cannabinoid receptor 2 [5]): 65.7%

CCCCCCN1C(=O)/C(=N\NC(=O)c2ccc(Cl)cc2)c2ccccc21
Activity [1]: 46.6%
Activity (Cannabinoid receptor 2 [2]): 32.7%

CN1CCCCC1Cn1cc(C(=O)c2cc([N+](=O)[O-])ccc2I)c2ccccc21 (configuration not stated)
Activity (Rattus norvegicus [11]): inactive

CCCCCCN1C(=O)/C(=N\NC(=O)c2ccccc2)c2ccccc21
Activity (Rattus norvegicus [12]): Active
Activity (Rattus norvegicus [13]): Non-toxic
Emax [3]: 59.7%
Ki (Cannabinoid receptor 2 [4]): 44.3 nM
Emax (Cannabinoid receptor 2 [5]): 68.8%
Activity [6]: 95.5%
ED90 (Rattus norvegicus [14]): 12 mg/kg
Activity (Cannabinoid receptor 2 [7]): 92.8%
Activity (Rattus norvegicus [15]): Active

CCCCCN1C(=O)/C(=N\NC(=O)c2ccccc2)c2cc(I)ccc21
Activity [1]: 25%
Activity (Cannabinoid receptor 2 [2]): 10%

CCCCCCN1C(=O)/C(=N\NC(=O)c2ccccc2)c2cccc(C)c21
Activity [1]: 67%
Activity [3]: inactive
Activity (Cannabinoid receptor 2 [2]): 68%
Emax (Cannabinoid receptor 2 [5]): 34.2%
Activity [10]: inactive

O=C(N/N=C1\C(=O)N(Cc2ccccc2)c2ccccc21)c1ccccc1
EC50 (Cannabinoid receptor 2 [16]): 63.7 nM
Activity [1]: 87%
Emax [3]: 57%
Ki (Cannabinoid receptor 2 [4]): 18.5 nM
Emax [8]: 57%
Activity (Cannabinoid receptor 2 [2]): 55%
Emax (Cannabinoid receptor 2 [5]): 92.7%

CCCCCCCCCCCCN1C(=O)/C(=N\NC(=O)c2ccccc2)c2ccccc21
Activity [1]: 23.8%
Activity (Cannabinoid receptor 2 [2]): 24.3%

CCCCN1C(=O)/C(=N\NC(=O)c2ccccc2)c2ccccc21
Activity [1]: 86%
Ki (Cannabinoid receptor 2 [4]): 19.3 nM
Emax [8]: 69%
Activity (Cannabinoid receptor 2 [2]): 70%
Emax (Cannabinoid receptor 2 [5]): 98.9%

O=C(N/N=C1\C(=O)N(CCN2C(=O)c3ccccc3C2=O)c2ccccc21)c1ccccc1
Activity [1]: 3%
Activity (Cannabinoid receptor 2 [2]): 3%

CCCCCCN1C(=O)/C(=N\NC(=O)c2cc3ccccc3s2)c2ccccc21
Activity [1]: < 30%
Activity (Cannabinoid receptor 2 [2]): < 30%

CCCCCCN1C(=O)/C(=N\NC(=O)c2ccccc2)c2cccc(Cl)c21
Activity [1]: 60%
Activity [3]: inactive
Activity (Cannabinoid receptor 2 [2]): 29%
Emax (Cannabinoid receptor 2 [5]): 64.8%
Activity [10]: inactive

CCCCCCN1C(=O)/C(=N\NC(=O)c2ccccc2)c2cc(F)ccc21
Activity [1]: 57%
Activity [3]: inactive
Activity (Cannabinoid receptor 2 [2]): 46%
Emax (Cannabinoid receptor 2 [5]): 33.8%
Activity [10]: inactive

CCCCCCN1C(=O)/C(=N/NS(=O)(=O)c2ccccc2)c2ccccc21
Activity [6]: < 40%
Activity (Cannabinoid receptor 2 [7]): < 40%
